Reference: publication PMC5557466, “Precision medicine approaches to lung adenocarcinoma with concomitant MET and HER2 amplification” (BMC Cancer, 2017)

How the values were obtained:
Format in all cases: cell-based, human
033 T PDX cells = assay: In vitro drug sensitivity assay (ATPlite cell viability, 6 days, sphere culture); settings: for IC50: Homo sapiens, primary culture in serum-free sphere conditions; for effect on 033 T cell proliferation (in words): in vitro drug screen
Protocol: (§1) Primary cultures of PDX cells in the serum-free sphere culture conditions were seeded in 384-well plates, at 500 cells per well. Two hours after plating, cells were treated with a drug library in three-fold and 10-point serial dilutions (n = 3, for each condition). Cells were incubated for 6 days at 37 °C, in a 5% CO2 humidified incubator, and the cell viability was analyzed using an adenosine triphosphate monitoring system based on firefly luciferase (ATPlite 1step; PerkinElmer, Waltham, MA, USA). […] The drugs were stored and diluted according to the manufacturer’s instructions. The tested concentrations for each drug were empirically derived, in order to investigate a clinically relevant spectrum of drug activities. IC50 values were calculated as an average of triplicate experiments using S+ Chip Analyzer (Samsung Electro-Mechanics Company, Ltd., Suwon, Korea). In order to investigate the effects of the treatment with targeted agents, signal transduction assays were performed using primarily cultured NSCLC PDX cells, which were maintained overnight in serum-free sphere culture conditions, without growth factors, incubated for 1 h with each inhibitor, and pulsed with original culture medium supplemented with bFGF/EGF/NRG/IGF for 15 min.

033 T cells [1] = assay: Cell proliferation time course of 033 T cells (WST-1); settings: from day 5 onward
Protocol: (§2) Xenograft tumor specimens were dissociated into single cells according to previously published protocol. Dissociated cells were cultured in Neurobasal medium-A, supplemented with N2 (×1/2; Life Technologies, Carlsbad, CA, USA), B27 (×1/2; GIBCO), basic fibroblast growth factor (bFGF; 25 ng/mL; R&D Systems, Minneapolis, MN, USA), EGF (25 ng/mL; R&D Systems, Minneapolis, MN, USA), neuregulin 1 (NRG; 10 ng/mL; R&D Systems, Minneapolis, MN, USA), and insulin-like growth factor 1 (IGF1; 100 ng/mL; R&D Systems, Minneapolis, MN, USA). Growth factors were supplemented every 3 days. When spheres appeared in the suspension culture, they were dissociated using StemPro Accutase (Life Technologies, Carlsbad, CA, USA), and reseeded in the suspension culture medium. Cells were grown in complete medium and treated with inhibitors 1 day after seeding. Five days later, the surviving cells were quantified by WST-1 staining (Roche Genentech, San Francisco, CA, USA).

[2] = tested on: phosphorylation of ERK1/2; assay: Signal transduction assay, western blot; settings: 033 T cells
Protocol: (§3) Primary cultures of PDX cells in the serum-free sphere culture conditions were seeded in 384-well plates, at 500 cells per well. Two hours after plating, cells were treated with a drug library in three-fold and 10-point serial dilutions (n = 3, for each condition). Cells were incubated for 6 days at 37 °C, in a 5% CO2 humidified incubator, and the cell viability was analyzed using an adenosine triphosphate monitoring system based on firefly luciferase (ATPlite 1step; PerkinElmer, Waltham, MA, USA). The drug library was composed of 17 targeted agents that were included in the clinical guidelines or current clinical trials for the treatment of NSCLC (gefitinib, erlotinib, lapatinib, afatinib, neratinib, caneratinib, dacomitinib, infigratinib, vandetanib, sunitinib, imatinib, CI-1040, vemurafenib, palbociclib, crizotinib, sonidegib, buparlisib; all purchased from Selleckchem, Houston, TX, USA). The drugs were stored and diluted according to the manufacturer’s instructions. The tested concentrations for each drug were empirically derived, in order to investigate a clinically relevant spectrum of drug activities. IC50 values were calculated as an average of triplicate experiments using S+ Chip Analyzer (Samsung Electro-Mechanics Company, Ltd., Suwon, Korea). […]

phosphorylation of STAT3 = assay: Signal transduction assay, western blot; settings: 033 T cells
Protocol: as §3

033 T cells [3] = assay: Tumor sphere formation in 033 T cell cultures
Protocol: as §2

phosphorylation of MET = assay: Signal transduction assay, western blot; settings: 033 T cells
Protocol: as §1

[4] = resistant if IC50 > 1000 nmol/L

`C#Cc1cccc(Nc2ncnc3cc(OCCOC)c(OCCOC)cc23)c1` [erlotinib] was tested, and the IC50 (033 T PDX cells; […]) was 836 nM.

`CS(=O)(=O)CCNCc1ccc(-c2ccc3ncnc(Nc4ccc(OCc5cccc(F)c5)c(Cl)c4)c3c2)o1` [lapatinib] gave an IC50 (033 T PDX cells; [4]) of 1560 nM.

For `CCOc1cc2ncc(C#N)c(Nc3ccc(OCc4ccccn4)c(Cl)c3)c2cc1NC(=O)/C=C/CN(C)C` [neratinib], the IC50 (033 T PDX cells; […]) was 133 nM and the “effect on 033 T cell proliferation (in words)” value (“effect” below) (033 T PDX cells) was “marked inhibitory effects”.

In the case of `COc1cc2ncnc(Nc3ccc(F)c(Cl)c3)c2cc1OCCCN1CCOCC1` [gefitinib], the “effect” value (033 T PDX cells) is reported as “marked inhibitory effects”.

In the case of `CN(C)C/C=C/C(=O)Nc1cc2c(Nc3ccc(F)c(Cl)c3)ncnc2cc1O[C@H]1CCOC1` [afatinib], the IC50 (033 T PDX cells; [4]) is reported as 971 nM.

`C[C@@H](Oc1cc(-c2cnn(C3CCNCC3)c2)cnc1N)c1c(Cl)ccc(F)c1Cl` [crizotinib] was tested, and the cell proliferation (033 T cells [1]) was “significantly inhibited cell proliferation”, the “phosphorylation of ERK1/2” value [2] was “completely abolishing” and the “phosphorylation of STAT3” value (phosphorylation of STAT3) was “completely abolishing”. The IC50 (033 T PDX cells; [4]) was 691 nM, the tumor sphere formation (033 T cells [3]) was “impaired tumor sphere formation” and the “phosphorylation of MET” value (phosphorylation of MET) was “completely abolishing”.

For `Nc1cc(C(F)(F)F)c(-c2cc(N3CCOCC3)nc(N3CCOCC3)n2)cn1` [buparlisib], the IC50 (033 T PDX cells; [4]) was 507 nM.

With `C=CC(=O)Nc1cc2c(Nc3ccc(F)c(Cl)c3)ncnc2cc1OCCCN1CCOCC1` [canertinib] the IC50 (033 T PDX cells; [4]) was 80 nM and the “effect” value (033 T PDX cells) was “effective”.
